The values below come from ChEMBL document CHEMBL3797194, “Benzimidazolone bioisosteres of potent GluN2B selective NMDA receptor antagonists” (Eur J Med Chem, 2016).

SMILES strings stand for the structures. pKi: −log10 of the molar value.

Assay [1] deals with T1, Glutamate receptor ionotropic, NMDA 2B (Homo sapiens, UniProt Q13224). The assay is described as follows: Binding affinity to GluN2B (unknown origin).
Target sequence in this assay (Q13224 whole entry): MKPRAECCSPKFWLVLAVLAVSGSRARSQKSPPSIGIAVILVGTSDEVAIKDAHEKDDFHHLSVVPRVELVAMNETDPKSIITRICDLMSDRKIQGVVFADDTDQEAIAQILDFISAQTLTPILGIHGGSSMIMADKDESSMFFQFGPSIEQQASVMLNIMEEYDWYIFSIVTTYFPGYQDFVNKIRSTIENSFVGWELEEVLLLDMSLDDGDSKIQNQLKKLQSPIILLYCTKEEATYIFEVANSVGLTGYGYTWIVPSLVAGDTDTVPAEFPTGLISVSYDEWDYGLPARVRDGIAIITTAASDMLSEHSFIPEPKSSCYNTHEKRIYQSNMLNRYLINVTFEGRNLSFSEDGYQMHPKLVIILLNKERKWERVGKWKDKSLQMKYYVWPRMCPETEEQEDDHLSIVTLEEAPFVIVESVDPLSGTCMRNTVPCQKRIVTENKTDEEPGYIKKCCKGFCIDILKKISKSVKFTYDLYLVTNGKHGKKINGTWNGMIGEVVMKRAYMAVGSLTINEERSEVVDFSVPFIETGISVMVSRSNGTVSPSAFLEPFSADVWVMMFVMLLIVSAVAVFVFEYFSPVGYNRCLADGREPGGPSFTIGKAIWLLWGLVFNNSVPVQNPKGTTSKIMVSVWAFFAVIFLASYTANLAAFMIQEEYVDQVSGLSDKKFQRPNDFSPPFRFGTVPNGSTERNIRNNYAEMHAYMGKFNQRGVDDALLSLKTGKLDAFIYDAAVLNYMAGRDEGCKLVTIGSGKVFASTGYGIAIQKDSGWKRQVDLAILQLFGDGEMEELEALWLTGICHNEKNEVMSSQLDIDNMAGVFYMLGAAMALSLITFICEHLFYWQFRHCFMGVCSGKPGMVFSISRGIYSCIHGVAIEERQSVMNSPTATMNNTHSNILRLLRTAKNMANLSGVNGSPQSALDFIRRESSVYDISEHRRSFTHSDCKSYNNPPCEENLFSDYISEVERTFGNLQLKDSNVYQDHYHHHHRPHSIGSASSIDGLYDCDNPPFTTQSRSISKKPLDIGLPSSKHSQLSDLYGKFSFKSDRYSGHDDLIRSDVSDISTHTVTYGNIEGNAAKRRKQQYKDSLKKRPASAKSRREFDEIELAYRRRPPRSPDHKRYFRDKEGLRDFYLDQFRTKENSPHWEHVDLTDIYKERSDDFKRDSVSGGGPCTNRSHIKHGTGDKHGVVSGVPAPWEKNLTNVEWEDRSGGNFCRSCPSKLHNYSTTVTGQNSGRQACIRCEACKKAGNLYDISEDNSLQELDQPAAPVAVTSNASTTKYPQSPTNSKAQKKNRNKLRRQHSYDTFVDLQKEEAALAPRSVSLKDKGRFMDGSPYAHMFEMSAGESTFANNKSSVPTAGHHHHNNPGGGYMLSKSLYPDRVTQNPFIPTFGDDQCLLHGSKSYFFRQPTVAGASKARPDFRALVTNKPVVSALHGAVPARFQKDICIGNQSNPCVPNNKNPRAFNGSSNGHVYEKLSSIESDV
A short description of assay [2]: Displacement of [3H]DTG from sigma2 receptor in rat liver homogenate incubated for 120 mins by solid scintillation counting analysis. It is filed as tissue-based. (In general: In a radioligand displacement assay an active substance lowers the binding of a labelled ligand.)
The species named for the next assay is Rattus norvegicus. The assay is described as follows: Displacement of [3H]DTG from sigma2 receptor in rat liver homogenate at 1 uM incubated for 120 mins by solid scintillation counting analysis. In kind it is tissue-based.
Assay [3] concerns the target Sigma non-opioid intracellular receptor 1 (Cavia porcellus) (UniProt Q60492). Kind of assay: Displacement of [3H]-(+)-Pentazocine from sigma1 receptor in guinea pig brain homogenate at 1 uM incubated for 120 mins by solid scintillation counting analysis. In kind it is tissue-based.
The target in assay [4] is T1, Glutamate receptor ionotropic, NMDA 2B. The assay is described as follows: Displacement of [3H]ifenprodil from recombinant human GluN2B expressed in mouse L(tk-) cell membranes at 1 uM incubated for 120 mins by microbeta scintillation counting analysis.
Target sequence in this assay (Q13224 27-1484 limits assumed): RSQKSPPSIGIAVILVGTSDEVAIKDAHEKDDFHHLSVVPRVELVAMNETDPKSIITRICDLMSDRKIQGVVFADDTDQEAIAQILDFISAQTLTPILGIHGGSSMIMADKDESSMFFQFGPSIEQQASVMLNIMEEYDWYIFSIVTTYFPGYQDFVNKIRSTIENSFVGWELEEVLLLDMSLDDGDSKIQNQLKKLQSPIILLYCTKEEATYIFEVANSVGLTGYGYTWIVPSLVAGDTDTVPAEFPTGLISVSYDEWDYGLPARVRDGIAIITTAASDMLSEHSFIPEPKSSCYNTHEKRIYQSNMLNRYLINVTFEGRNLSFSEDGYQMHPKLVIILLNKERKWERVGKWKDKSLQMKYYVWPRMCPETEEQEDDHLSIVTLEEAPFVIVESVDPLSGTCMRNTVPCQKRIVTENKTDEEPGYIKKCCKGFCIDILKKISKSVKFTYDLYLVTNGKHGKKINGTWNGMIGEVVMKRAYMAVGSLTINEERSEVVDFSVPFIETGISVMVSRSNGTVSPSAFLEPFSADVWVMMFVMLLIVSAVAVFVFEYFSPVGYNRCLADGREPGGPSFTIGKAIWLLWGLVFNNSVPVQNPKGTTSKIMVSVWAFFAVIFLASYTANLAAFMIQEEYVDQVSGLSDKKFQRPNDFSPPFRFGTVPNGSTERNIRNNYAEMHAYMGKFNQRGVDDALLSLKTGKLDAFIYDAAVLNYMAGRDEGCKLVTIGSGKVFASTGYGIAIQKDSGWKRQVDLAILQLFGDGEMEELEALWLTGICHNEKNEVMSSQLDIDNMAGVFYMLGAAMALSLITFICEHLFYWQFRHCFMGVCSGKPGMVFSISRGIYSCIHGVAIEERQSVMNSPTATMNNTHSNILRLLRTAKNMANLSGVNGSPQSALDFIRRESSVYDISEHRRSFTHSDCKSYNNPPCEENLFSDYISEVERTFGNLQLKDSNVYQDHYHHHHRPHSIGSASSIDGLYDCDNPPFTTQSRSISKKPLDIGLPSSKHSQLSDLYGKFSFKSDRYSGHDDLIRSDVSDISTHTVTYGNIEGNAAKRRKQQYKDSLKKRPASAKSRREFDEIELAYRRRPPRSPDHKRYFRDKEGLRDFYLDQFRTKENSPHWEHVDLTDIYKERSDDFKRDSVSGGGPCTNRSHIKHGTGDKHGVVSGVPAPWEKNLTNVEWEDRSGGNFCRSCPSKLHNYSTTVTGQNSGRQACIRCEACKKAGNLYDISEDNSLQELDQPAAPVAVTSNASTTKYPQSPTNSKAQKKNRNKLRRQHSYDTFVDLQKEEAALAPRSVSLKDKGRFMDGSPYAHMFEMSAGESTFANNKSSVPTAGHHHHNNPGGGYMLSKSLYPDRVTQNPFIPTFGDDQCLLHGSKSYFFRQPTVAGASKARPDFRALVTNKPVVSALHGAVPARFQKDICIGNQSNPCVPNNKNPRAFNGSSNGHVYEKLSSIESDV
For assay [5] the target is unchanged. Kind of assay: Displacement of [3H]ifenprodil from recombinant human GluN2B expressed in mouse L(tk-) cell membranes incubated for 120 mins by microbeta scintillation counting analysis.
Target sequence in this assay (Q13224 whole entry): as the sequence (Q13224 whole entry) above
For assay [6], the target named is Sigma non-opioid intracellular receptor 1 (Cavia porcellus, UniProt Q60492). The assay is described as follows: Displacement of [3H]-(+)-Pentazocine from sigma1 receptor in guinea pig brain homogenate incubated for 120 mins by solid scintillation counting analysis. In kind it is tissue-based.
Sigma non-opioid intracellular receptor 1, sequence (Q60492 whole entry): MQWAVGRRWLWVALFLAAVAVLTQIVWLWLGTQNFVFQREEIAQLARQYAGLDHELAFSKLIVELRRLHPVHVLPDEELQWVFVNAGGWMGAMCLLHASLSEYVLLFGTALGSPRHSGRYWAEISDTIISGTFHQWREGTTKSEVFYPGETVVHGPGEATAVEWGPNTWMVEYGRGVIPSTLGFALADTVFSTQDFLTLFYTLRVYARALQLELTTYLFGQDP

Sigma non-opioid intracellular receptor 1 (Cavia porcellus), sequence (Q60492 whole entry): as above

The term pKi denotes the Ki on a negative log10 scale, so that one unit is a factor of ten. Turning to `O=c1[nH]c2ccc([S+]([O-])CCN3CCC(Cc4ccc(F)cc4)CC3)cc2o1` (centres undefined) [BESONPRODIL], the negative logarithm of the Ki (pKi) in assay [1] is 7.52.
In the case of `Cc1ccccc1NC(=N)Nc1ccccc1C` [DITOLYLGUANIDINE], in assay [2], the negative logarithm of the Ki (pKi) was 7.24.
Usually inhibition stands for the percentage by which the read-out fell short of the control. Take `Cn1c(=O)n(C)c2cc3c(cc21)CCC[C@@H](O)[C@@H]3O` (racemic): the figures for the inhibition (in the assay listed under Rattus norvegicus; in assay [3]; in assay [4]) were 18%, 0% and 18%, respectively.
With `Cn1c(=O)n(C)c2cc3c(cc21)CCC[C@@H](O)[C@@H]3NCCCc1ccccc1` (racemic), the inhibition in the assay filed under Rattus norvegicus was 32%; in assay [3] it was 19%; in assay [4] it was 0%.
In the case of `Cn1c(=O)n(C)c2cc3c(cc21)CCCC(NCCCc1ccccc1)C3` (racemic), the pKi is 6.16 in assay [5], 6.26 in assay [2] and 5.40 in assay [6].
For `Cn1c(=O)n(C)c2cc3c(cc21)CCC[C@H](O)[C@@H]3O` (racemic), the inhibition amounted to 5% in the assay listed under Rattus norvegicus, 11% in assay [3] and 0% in assay [4].
